Key:
Test in all cases: relative viability (nuclei count vs DMSO), 5 days (fraction); higher = more cells survive
VE-821 + Phenformin = compound: CS(=O)(=O)c1ccc(-c2cnc(N)c(C(=O)Nc3ccccc3)n2)cc1 [VE-821] + N=C(N)NC(=N)NCCc1ccccc1 [Phenformin] (partner 250 µM)
Procedure, shortened: (§1)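 Relative viability is defined as nuclei in treated wells over nuclei in vehicle wells. Duplicate plates were run and medians reported. Lung cancer cell lines in 1536-well plates were dosed by pin tool one day after seeding, with one drug or with a fixed anchor-drug dose plus five library-drug doses (not always all listed) in √10 steps, and nuclei were counted after 5 days.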

Vismodegib + Bortezomib = compound: CS(=O)(=O)c1ccc(C(=O)Nc2ccc(Cl)c(-c3ccccn3)c2)c(Cl)c1 [Vismodegib] + CC(C)C[C@H](NC(=O)[C@H](Cc1ccccc1)NC(=O)c1cnccn1)B(O)O [Bortezomib] (partner 0.002 µM)
Procedure, shortened: as §1

Vismodegib + Phenformin = compound: CS(=O)(=O)c1ccc(C(=O)Nc2ccc(Cl)c(-c3ccccn3)c2)c(Cl)c1 [Vismodegib] + N=C(N)NC(=N)NCCc1ccccc1 [Phenformin] (partner 250 µM)
Procedure, shortened: as §1

Ruxolitinib + Pictilisib = compound: N#CC[C@H](C1CCCC1)n1cc(-c2ncnc3[nH]ccc23)cn1 [Ruxolitinib] + CS(=O)(=O)N1CCN(Cc2cc3nc(-c4cccc5[nH]ncc45)nc(N4CCOCC4)c3s2)CC1 [Pictilisib] (partner 1 µM)
Procedure, shortened: as §1

What does the source list for UMC-11?
relative viability (VE-821 + Phenformin; first compound 0.08 µM): 0.335; relative viability (VE-821 + Phenformin; first compound 0.253 µM): 0.301; relative viability (VE-821 + Phenformin; first compound 0.8 µM): 0.331; relative viability (VE-821 + Phenformin; first compound 2.53 µM): 0.341; relative viability (VE-821 + Phenformin; first compound 8 µM): 0.265; relative viability (Vismodegib + Bortezomib; first compound 0.08 µM): 0.593; relative viability (Vismodegib + Bortezomib; first compound 0.253 µM): 0.665; relative viability (Vismodegib + Bortezomib; first compound 0.8 µM): 0.85; relative viability (Vismodegib + Bortezomib; first compound 2.53 µM): 0.717; relative viability (Vismodegib + Bortezomib; first compound 8 µM): 0.745; relative viability (Vismodegib + Phenformin; first compound 0.08 µM): 0.286; relative viability (Vismodegib + Phenformin; first compound 0.253 µM): 0.311; relative viability (Vismodegib + Phenformin; first compound 0.8 µM): 0.301; relative viability (Vismodegib + Phenformin; first compound 2.53 µM): 0.283; relative viability (Vismodegib + Phenformin; first compound 8 µM): 0.284; relative viability (Ruxolitinib + Pictilisib; first compound 0.08 µM): 0.738; relative viability (Ruxolitinib + Pictilisib; first compound 0.253 µM): 0.853; relative viability (Ruxolitinib + Pictilisib; first compound 0.8 µM): 1.05; relative viability (Ruxolitinib + Pictilisib; first compound 2.53 µM): 0.958; relative viability (Ruxolitinib + Pictilisib; first compound 8 µM): 0.927
